In patent US12349665B2, “Animal model for hepatocellular carcinoma and uses thereof” (TAIPEI VETERANS GENERAL HOSPITAL, priority 2019, dated 2025):

Tests used:
Assay type in all cases: in vivo, mouse
HBV = test: Long-term use and withdrawal of HBV antiviral drugs in hybrid mice (HBV transgenic x miR-122 knock-out), viral load; settings: six-month-old hybrid mice, ETV 5 or 1 mg/kg; for amount of virus after one month of medication (M1) / amount of virus after one month of withdrawal (M2): TDF 135 or 50 mg/kg
Method: Six-month-old hybrid mice were fed with different doses of TDF (135 or 50 mg/kg-day) and […] (5 or 1 mg/kg-day).
(Wu & Wu et al. Gastroenterology 2014). At present, nucleoside analogues that are more commonly used clinically are tenofovir (TDF) and entecavir (ETV), which have strong antiviral efficacy and rarely have drug resistance. Reactivation of the virus and recurrence of hepatitis occurred more frequently and early after withdrawal of tenofovir (TDF) than after withdrawal of entecavir (ETV). Withdrawal of tenofovir (TDF) may sometimes cause liver failure for some unknown reason. The effect of long-term use and withdrawal of HBV antiviral drug tenofovir (TDF) and entecavir (ETV) on the amount of virus was compared. Six-month-old hybrid mice were fed with different doses of TDF (135 or 50 mg/kg) and ETV (5 or 1 mg/kg). […] Studies of efficacy and side effects of long-term use of tenofovir (TDF) or entecavir (ETV) on reducing hepatitis by using the hybrid mice are going on, and valuable clinical data will be provided.

[1] = test system: drug resistant HBV genome; test: Antiviral drug treatment of HBV transgenic mice with drug resistant HBV genome, amount of virus in serum; settings: compared with wild-type HBV genome mice
Text: (§1) According to the present invention, the drug resistant HBV genome is resistant to an antiviral nucleoside analogue, such as adefovir or lamivudine.
(§2) The upper and lower limits of the rectangles in the figure are quartiles, and the horizontal lines within the rectangles indicate the median. Mann-Whitney U test was used for statistical analysis, and p=0.0093, showing the significant differences.

[2] = test system: wild-type hepatitis B virus; test: Antiviral drug treatment of HBV transgenic mice with wild-type HBV genome, amount of virus in serum
Text: as §1, §2

| Structure (SMILES) | amount of virus after one month of medication (M1) (HBV) | amount of virus after one month of withdrawal (M2) (HBV) | amount of virus after 3 months of withdrawal (M4) (HBV) | amount of virus after 6 months of withdrawal (M7) (HBV) | amount of serum virus after treatment with antiviral drug [1] | amount of serum virus after treatment with antiviral drug [2] |
| --- | --- | --- | --- | --- | --- | --- |
| CC(C)OC(=O)OCOP(=O)(CO[C@H](C)Cn1cnc2c(N)ncnc21)OCOC(=O)OC(C)C.O=C(O)/C=C/C(=O)O [TDF, tenofovir] | reduce the amount of virus to a minimum | quickly rose to the level before medication (M0) | – | – | – | – |
| C=C1[C@H](CO)[C@@H](O)C[C@@H]1n1cnc2c(=O)[nH]c(N)nc21 [ETV, entecavir] | reduce the amount of virus to a minimum | maintained at the lower level | 1.0E+5 to 1.0E+6 | rose to the level before the medication (M0) | – | – |
| Nc1ncnc2c1ncn2CCOCP(=O)(O)O [adefovir] | – | – | – | – | decreased much less | decreased by more than a thousand times |
